From paper PMC6330446, “An integrated characterization of contractile, electrophysiological, and structural cardiotoxicity of Sophora tonkinensis Gapnep. in human pluripotent stem cell-derived cardiomyocytes” (Stem Cell Research & Therapy, 2019)
“Also recorded” adds a separate entry of the source.

Key:
GCaMP hESC-CMs = assay type: cell-based, human; settings: GCaMP hESC-CMs; high dose of alkaloids (50 μM), aconitine 1 μM
Procedure: The hESC-CMs in this experiment can express the GCaMP reporter gene by gene editing, and green fluorescence marker can be observed by a fluorescence microscope. The fluorescence intensity is proportional to Ca^2+ concentration. The CMs were seeded into 96-well plates at 5000/well and were administered the same as above. The fluorescence intensities of hESC-CMs were monitored using an IncuCyte™ S3 ZOOM cell imaging system (Essen BioScience, Ann Arbor, MI). Data were presented as the mean ± SEM, n ≥ 3.

hiPSC-CMs [1] = settings: hiPSC-CMs; alkaloids 2, 10, 50 μM, aconitine 1 μM
Procedure: (§1) After plating for about 3 days, CMs matured and began to beat. At this time, different compounds were added, and experiments were performed 24 h after treatment. The experiments were grouped as follows: control group (normal medium); matrine, oxymatrine, sophocarpine, and cytisine treatment (2, 10, 50 μM) groups; and aconitine treatment (1 μM) group. The doses of toxicity studies above were determined by the effective therapeutic doses reported and included or exceeded the therapeutic dose.
Cell treatment method was the same as above. After reaching the predetermined time, 120 μl of the supernatant of each well was taken for measuring LDH leakage using a commercially available kit (Beyotime Biotechnology, Shanghai, China) following the manufacturer’s instructions. Data were presented as the mean ± SEM, n ≥ 3.

hiPSC-CMs [2] = settings: hiPSC-CMs; alkaloids 2, 10, 50 μM, aconitine 1 μM; 24 h
Procedure: as §1
CMs were incubated in 10% CCK-8 (Dojindo, Kumamoto, Japan) that was diluted in normal culture medium at 37 °C until a visual color conversion occurred. The absorbance of each well was measured using a microplate reader (Spectrafluor, TECAN, Sunrise, Austria) at 450 nm. Three individual experiments were performed. All samples were operated in duplicate.
A 96-well plate was used to seed hiPSC-CMs at a concentration of 5 × 10^4 cells per well. The cultured cells were treated with different concentrations of compounds and were incubated for another 48 h. CMs were digested with trypsin, and a small amount of cell suspension was added into the same amount of trypan blue solution. Countstar Automated Cell Counter IC1000 (Elite Life Sciences, Shanghai, China) was used to count the number of total and living cells. Data were presented as the mean ± SEM, n ≥ 3.

hiPSC-CMs [3] = assay type: cell-based, human; settings: hiPSC-CMs; high dose of alkaloids (50 μM), aconitine 1 μM
Procedure: Cells were incubated in a maintaining medium containing 10 μM DCFH-DA (Beyotime Biotechnology, Shanghai, China) for 30 min at 37 °C in the dark. The measurement of ROS was performed with IncuCyte™ S3 ZOOM cell imaging system (Essen BioScience, Ann Arbor, MI). TissueQuest 6.0 was used for the quantitative analysis of ROS formation. Data were presented as the mean ± SEM, n ≥ 3.

hiPSC-CMs [4] = assay: TUNEL staining (apoptosis); assay type: cell-based, human; settings: high dose of alkaloids, aconitine
Procedure: Supplementary file 13287_2018_1126_MOESM1_ESM.tif: Additional file 1: Figure S1. Effect of matrine, oxymatrine, cytisine, and sophocarpine on TUNEL staining in hiPSC-CMs. After treatment with matrine, oxymatrine, cytisine, and sophocarpine, the images of TUNEL fluorescence and bright field were acquired intuitively using IncuCyte™ S3 ZOOM cell imaging system and the fluorescence intensity was analyzed quantitatively using TissueQuest 6.0. […] The scale bar is 400 μm. Data are presented as the mean ± SEM, n ≥ 3. […] vs the control group. (TIF 23588 kb)

hiPSC-CMs [5] = assay: CK-MB and cardiac troponin I ELISA assay; assay type: cell-based, human; settings: alkaloids 2, 10, 50 μM, aconitine 1 μM
Procedure: as §1
Cell treatment method was the same as above. After the administration, the cells were digested and then destroyed by repeated freeze-thaw and sonication to release the components in the cells. Centrifuged at 2500 rpm for 20 min, the supernatant was collected for the detection of creatine kinase MB isoenzyme (CK-MB) and cardiac troponin I (CTn-I) ELISA kit (Expandbiotech, Beijing, China) following the manufacturer’s instructions. Data were presented as the mean ± SEM, n ≥ 3.

CCN1C[C@]2(COC)[C@H](O)C[C@H](OC)[C@@]34[C@@H]5C[C@@]6(O)[C@H](OC(=O)c7ccccc7)[C@@H]5[C@@](OC(C)=O)([C@@H]([C@H](OC)[C@H]23)[C@@H]14)[C@@H](O)[C@@H]6OC [aconitine, reference compound]
Fluorescence intensity of calcium, [Ca^2+]i (in words) (GCaMP hESC-CMs): increased drastically
LDH level in the supernatant (in words) (hiPSC-CMs [1]): induced a large amount; also recorded: increased immensely
Cell viability (in words) (hiPSC-CMs [2]): showed a great significance
ROS fluorescence / ROS production (in words) (hiPSC-CMs [3]): induced excessive ROS production
TUNEL fluorescence staining (in words) (hiPSC-CMs [4]): huge increase
CK-MB level (in words) (hiPSC-CMs [5]): induced a large amount; also recorded: increased immensely
CTnI level (in words) (hiPSC-CMs [5]): induced a large amount
